A word on the EC50: it is the concentration needed to bring the measured effect to its halfway point. One may read the IC50 as the concentration that inhibits the measured activity by half. A low value points to greater potency.

Where two headings read alike, the source gives them in different places.

In one series the target is T1, PD-1/PD-L1 interaction (Homo sapiens, UniProt Q9NZQ7).
T1 construct: host or cells: CHO-K1 (CHO/TCRAct/PD-L1) and Jurkat effector cells
Briefly: PD-1/PD-L1 ICB assay (Jurkat-ECs with CHO/TCRAct/PD-L1 cells, luciferase). In kind it is cell-based. The conditions noted are these: for selectivity of PD-1/PD-L1-blocking activity versus cytotoxicity: EC50 (tox.) vs EC50 (bio.), Figure 3F; for EC50: Jurkat-ECs with CHO/TCRAct/PD-L1, 6 h, SI csv, read-out: Bioactivity (EC50 in the ICB assay). The protocol:
After a successful optimization of the terphenyl compounds, the activity of the optimized molecules 7a and 8a–j in a cellular context was assessed. To this end, we first performed the PD-1/PD-L1 ICB assay. In this assay, T-cell receptor (TCR)-mediated activation of Jurkat effector cells (Jurkat-ECs) is reduced by the presence of PD-L1, exposed at the surface of CHO/TCRAct/PD-L1 cells (Figure 3A).
(§1) The functional assay of the blockade of PD-1/PD-L1 interaction in vitro (PD-1/PD-L1 Blockade Bioassay, Promega) was performed according to the manufacturer’s protocol. CHO/TCRAct/PD-L1 cells or CHO/TCRAct or CHO-K1 cells were seeded on 96-well white plates at the density of 10,000 cells/well and the next day overlaid with Jurkat T cells (20,000 cells/well) in the presence of increasing concentrations of the compounds with DMSO only as a control (the concentration of DMSO was kept constant at 0.1%) or atezolizumab, as a positive control, anti-PD-L1 monoclonal antibody (Selleckchem). The 2.5-fold dilutions of atezolizumab were prepared in the assay buffer (RPMI 1640 + 1% FBS) on the day of the assay. Activation of the Jurkat T cells, reflected by luciferase activity, was monitored by luminescence measurements after 6 h of incubation (37 °C, 5% CO2), and 20 min of additional incubation with the Bio-Glo assay reagent (Promega) at room temperature. The luminescence was read on a Spark microplate reader (Tecan). The data are presented as fold induction of the luminescence signal relative to either untreated (for atezolizumab) or DMSO-treated (for compound) cells. Data points represent mean ± SD values from three to five independent experiments. Half-maximal effective concentrations (EC50 values) were calculated from the Hill curve fitting to the experimental data using Origin Pro 2020 software (OriginLab).

Series [1] can be described thus: Cytotoxicity assay toward Jurkat-ECs. The conditions noted are these: human, Jurkat-EC cells, SI csv. It counts as cell-based. The protocol: The cytotoxicity of compounds was verified toward Jurkat-ECs since these cells provide the readout in the ICB assay and present a much higher degree of susceptibility to the compounds’ toxicity than CHO-K1 cells (not shown). Jurkat-ECs were seeded on 96-well transparent plates in the presence of increasing concentrations of the compounds with DMSO-treated cells as a control. The concentration of DMSO was kept constant (0.1%). After 48 h of incubation, a tetrazolium reagent, Biolog redox dye MIX MB (Biolog), was added according to the manufacturer’s protocol, and the culture plates were incubated for an additional 2 h (37 °C, 5% CO2). The absorbance was measured using a Spark microplate reader (Tecan) at 590 nm with 750 nm as a reference. The data are presented as Jurkat-EC survival relative to DMSO-treated control cells. Data points represent mean ± SD values from three independent experiments. Half-maximal effective concentrations (EC50 values) were calculated from the dose–response curve using OriginPro 2020 (OriginLab) software.

The test system of series [2] is primary CD4+ and CD8+ T cells (PBMCs). Briefly: T-cell activation (TCA) assay, PBMCs with CHO/TCRAct/PD-L1 cells, flow cytometry. In kind it is cell-based, human. The conditions noted are these: 48 h; compounds 0.1, 0.5, 2.5 μM; mAbs 5 μg/mL. The protocol: A standard ICB assay relies on artificial Jurkat-ECs, which are surrogates of T-cells. To verify the potential of the compounds to reactivate the PD-L1-blocked primary T cells, a modified assay termed T-cell activation (TCA) was carried out.[32] In this assay, human primary peripheral blood mononuclear cells (PBMCs) are allowed to make contact with CHO/TCRAct/PD-L1 cells alone or in the presence of PD-1/PD-L1 blockers, and the activation of CD4^+ and CD8^+ T cell is monitored by flow cytometry.
Anticoagulant citrate dextrose-A-treated blood from healthy donors was purchased from the Regional Center of Blood Donation and Blood Therapy in Krakow, Poland. PBMCs were isolated from whole blood by density gradient centrifugation using Pancoll human separating solution (PAN-Biotech GmbH, Aidenbach, Germany). The separated cells were washed and resuspended in RPMI 1640 medium (Biowest) containing 10% FBS (Biowest). PBMCs were added at an amount of 3 × 10^5 to CHO, CHO/TCRAct, or CHO/TCRAct/PD-L1 cells preseeded on 24-well plates in the presence of either anti-PD-L1 mAbs (at the final concentration 5 μg/mL): durvalumab (Selleckchem), atezolizumab (Selleckchem), or avelumab (MedChemExpress) or tested compounds at the concentrations 0.1, 0.5, and 2.5 μM. Untreated cells were used as controls for antibody treatment, while DMSO-treated cells [0.1% (v/v)] were used as controls for compound treatment. The cells were incubated for 48 h (37 °C, 5% CO2) and then detached from the plates with TrypLe Select Enzyme (Thermo Fisher). PBMCs were stained for 20 min at room temperature with the antibodies: anti-CD4-FITC, anti-CD8-BV510, anti-CD69-APC, anti-CD25-PE, anti-HLA-DR-PerCP, and anti-PD1-PECy7 (Becton Dickinson Biosciences, BD). Following two washing steps, the cells were analyzed with a FACSCanto II cytometer. Data analysis was carried out with FlowJo software, followed by statistical significance calculations done with Origin Pro 2020 software (OriginLab). Statistical significance was analyzed with one-way analysis of variance (ANOVA), followed by the Fisher’s posthoc test: *p < 0.05, **p < 0.01, […].

Series [3] deals with Jurkat-ECs alone or with CHO wt or CHO/TCRAct cells. Briefly: ICB assay control where PD-L1 is absent. It counts as cell-based. To be noted: 6 h; Figure S1. The protocol:
as §1, with “(OriginLab). […]” for “(OriginLab).”
of the Immune Checkpoint Blockade (ICB) assay, where 8h, 8i, and 8j were used to restore the activation of effector Jurkat-ECs. Jurkat-ECs were either kept alone, or contacted with one of the following cell lines: wild type CHO K1 cells (CHO wt), CHO K1 cells expressing TCR Activator (CHO/TCRAct), or CHO K1 cells expressing TCR Activator and […]. The cells were incubated with the indicated concentrations of the compounds for 6 hours and luminescence was measured as an indicator of TCR-dependent activation of Jurkat-ECs. The graphs present fold induction of the luminescence signal relative to DMSO-treated cells. […]

The target in a further series is PD-1/PD-L1 complex (Homo sapiens, UniProt Q9NZQ7). Briefly: HTRF assay of PD-1/PD-L1 complex dissociation (CisBio).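 As to all read-outs here: human PD-L1 at 5 nM with human PD-1 at 50 nM, TR-FRET signal read after 2 h at room temperature, background removed via negative control and scaled to positive control.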 To be noted: for remaining activity at 0.005 µM: 2 h; for IC50: HTRF, Table 4, <1.00 = limit of quantification reached. For orientation: In TR-FRET formats the signal depends on donor and acceptor labels being close together.
PD-1/PD-L1 complex, sequence (Q9NZQ7 19-238 limits assumed, one chain of several): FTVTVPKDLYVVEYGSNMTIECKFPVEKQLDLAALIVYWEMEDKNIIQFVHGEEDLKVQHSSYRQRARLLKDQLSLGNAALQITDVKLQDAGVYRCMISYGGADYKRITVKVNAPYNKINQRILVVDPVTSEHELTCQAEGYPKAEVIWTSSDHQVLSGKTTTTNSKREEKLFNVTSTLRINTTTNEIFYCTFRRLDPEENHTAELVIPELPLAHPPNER
Series [4] concerns PBMCs cocultured with CHO/TCRAct/PD-L1 cells. Briefly: Cytokine accumulation in culture media of the TCA assay (CBA Th1/Th2/Th17 kit). It counts as cell-based, human. The conditions noted are these: TCA assay supernatants, four donors. As for the experimental part: In addition to the expression of surface markers, the accumulation of immune-related cytokines in the culture media collected in the TCA assay was monitored with the cytometric bead array (CBA) human Th1/Th2/Th17 kit. […] Also, the levels of IL-6, IFN-γ, and IL-2 increased, but these increases were not statistically significant.
The concentration of the cytokines (IL-2, IL-4, IL-6, IL-10, IL-17A, IFN-γ, and TNFα) in supernatants was determined using the CBA Human Th1/Th2/Th17 kit (BD Biosciences), with data acquisition using the FACSCanto flow cytometer. The CBA beads were discriminated in FL-4 and FL-5 channels, while the concentration of specified cytokines was determined by the intensity of FL-2 fluorescence, using the respective standard reference curve and FCAP Array software (BD Biosciences). IL-4 was below the detection level and is not presented in the manuscript. Statistical significance was analyzed with one-way ANOVA using the Origin Pro 2020 software, followed by the Fisher’s posthoc test: *p < 0.05, **p < 0.01, […].

[5] abbreviates: read-out: % of undissociated complex at 5 nM.
The mark [6] stands for this setting: read-out: HTRF % of the undissociated complex at 5 nM.

T1 sequence (Q9NZQ7 19-290): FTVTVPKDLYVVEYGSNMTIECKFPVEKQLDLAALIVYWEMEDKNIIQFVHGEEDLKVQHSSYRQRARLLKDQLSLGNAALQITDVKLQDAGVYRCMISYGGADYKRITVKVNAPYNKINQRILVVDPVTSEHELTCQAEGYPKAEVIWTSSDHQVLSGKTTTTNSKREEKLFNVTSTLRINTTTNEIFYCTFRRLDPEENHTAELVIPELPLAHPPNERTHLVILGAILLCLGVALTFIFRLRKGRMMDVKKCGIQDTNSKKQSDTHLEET
Procedure for PD-1/PD-L1 complex: HTRF was performed using the certified CisBio assay according to the manufacturer’s guidelines. The experiments were performed at 5 nM h-PD-L1 and 50 nM hPD-1 in the final formulation at 20 μL final volume in the well. To determine the half-maximal inhibitory concentration (IC50) of tested compounds, measurements were performed on two individual dilution series, unless states otherwise. After mixing all components according to the CisBio protocol, the plate was left for 2 h incubation at room temperature, followed by time-resolved fluorescence energy transfer (TR-FRET) measurement on Tecan Spark 20M. Collected data were background-subtracted on the negative control, normalized on the positive control, averaged, and fitted with normalized Hill’s equation to determine the IC50 value using Mathematica 12.

`COc1cc(-c2cccc(-c3ccc4c(c3)OCCO4)c2Cl)ccc1CNCCNC(N)=O` [8h, 1-(2-(((3′-(Benzo-1,4-dioxan-6-yl)-2′-chloro-3-methoxy-[1,1′-biphenyl]-4-yl)methyl)amino)ethyl)urea]: on PD-1/PD-L1 interaction, the “selectivity of PD-1/PD-L1-blocking activity versus cytotoxicity” value is “highest selectivity” and the EC50 worked out at 2000 ± 370 nM. Further, in series [1], the half-maximal effective concentration (EC50) at 48 h is 4140 ± 710 nM. Also, the “numbers of PD-1-positive T cells” value in series [2] is given as “significant increase”. Besides, the “activation of Jurkat-ECs where PD-L1 is absent” value in series [3] is “requires the presence of PD-L1”. For the same compound, at PD-1/PD-L1 complex (setting [5]), the remaining activity at 0.005 µM came to 6%. Further, the remaining activity at 0.005 µM on PD-1/PD-L1 complex (setting [6]) was 6%. Besides, the IC50 against PD-1/PD-L1 complex is under 1 nM.

In the case of `COc1cc(-c2cccc(-c3ccc4c(c3)OCCO4)c2Cl)ccc1CNC(CO)CO` [8i, 2-(((3′-(Benzo-1,4-dioxan-6-yl)-2′-chloro-3-methoxy-[1,1′-biphenyl]-4-yl)methyl)amino)propane-1,3-diol], at PD-1/PD-L1 interaction, the “selectivity of PD-1/PD-L1-blocking activity versus cytotoxicity” value is given as “highest selectivity” and the EC50 was determined as 2570 ± 450 nM. In series [1], the concentration for a half-maximal effect (EC50) at 48 h is 4630 ± 350 nM. The “activation of Jurkat-ECs where PD-L1 is absent” value in series [3] is reported as “requires the presence of PD-L1”. Moreover, the remaining activity at 0.005 µM on PD-1/PD-L1 complex (setting [5]) came to 0%. For the same compound, the remaining activity at 0.005 µM at PD-1/PD-L1 complex (setting [6]) was 0%. The compound further had a concentration for half-maximal inhibition (IC50) at PD-1/PD-L1 complex of under 1 nM.

Turning to “atezolizumab: therapeutic anti-PD-L1 monoclonal antibody, positive control”, the “activation of Jurkat-ECs” value with PD-1/PD-L1 interaction (6 h, fold induction of luminescence) is “full activation of Jurkat-ECs is restored”. Moreover, in series [2], the “numbers of PD-1-positive T cells” value is “increases the expression of PD-1 on T-cells”. Further, the “accumulation of immune-related cytokines in culture media” value in series [4] was “significantly increased levels of IL-17A, TNF-α, and IL-10”.

Source of the values: paper PMC8365601, “Terphenyl-Based Small-Molecule Inhibitors of Programmed Cell Death-1/Programmed Death-Ligand 1 Protein–Protein Interaction” (Journal of Medicinal Chemistry, 2021).
